The numbers were not newly measured in patent US20220211725A1, “Pharmaceutical Composition Comprising Venetoclax” (Alembic Pharmaceuticals Limited, priority 2019, published 2022), which cites them from elsewhere.

For this series the following is noted: background description.

With `CC1(C)CCC(CN2CCN(c3ccc(C(=O)NS(=O)(=O)c4ccc(NCC5CCOCC5)c([N+](=O)[O-])c4)c(Oc4cnc5[nH]ccc5c4)c3)CC2)=C(c2ccc(Cl)cc2)C1` [Venetoclax], the aqueous solubility entry was “very low”.
